Earlier results in paper PMC9775177, “NLRP3-Inflammasome Inhibition with IZD334 Does Not Reduce Cardiac Damage in a Pig Model of Myocardial Infarction” (Biomedicines, 2022).

Legend:
large animal model of MI = tested on: large animal model of MI; set-up: method as in PMID 27432019; settings: cited from earlier work
IR injury in mice = tested on: IR injury in mice; set-up: method as in PMID 30747785; settings: cited from earlier work
[1] = large animal model, 7 days following MI

Compound	IS (infarct size) (large animal model of MI; [1])	LV function (large animal model of MI; [1])	circulating markers of inflammation (large animal model of MI; pigs treated with MCC950)	infarct development (IR injury in mice)	left ventricular dysfunction (IR injury in mice)
CC(C)(O)c1coc(S(=O)(=O)NC(=O)Nc2c3c(cc4c2CCC4)CCC3)c1 [MCC950]	dose-dependently reduced IS	improvement in LV function	only modestly lower		
CS(=O)(=O)CCC#N [OLT1177]				limited infarct development	prevented left ventricular dysfunction
